For test [1], the target named is T1, αβγ hENaC (Homo sapiens, UniProt P37088+P51168+P51170).
T1 construct: GFP; host or cells: HEK293T
T1 sequence (P37088 1-669): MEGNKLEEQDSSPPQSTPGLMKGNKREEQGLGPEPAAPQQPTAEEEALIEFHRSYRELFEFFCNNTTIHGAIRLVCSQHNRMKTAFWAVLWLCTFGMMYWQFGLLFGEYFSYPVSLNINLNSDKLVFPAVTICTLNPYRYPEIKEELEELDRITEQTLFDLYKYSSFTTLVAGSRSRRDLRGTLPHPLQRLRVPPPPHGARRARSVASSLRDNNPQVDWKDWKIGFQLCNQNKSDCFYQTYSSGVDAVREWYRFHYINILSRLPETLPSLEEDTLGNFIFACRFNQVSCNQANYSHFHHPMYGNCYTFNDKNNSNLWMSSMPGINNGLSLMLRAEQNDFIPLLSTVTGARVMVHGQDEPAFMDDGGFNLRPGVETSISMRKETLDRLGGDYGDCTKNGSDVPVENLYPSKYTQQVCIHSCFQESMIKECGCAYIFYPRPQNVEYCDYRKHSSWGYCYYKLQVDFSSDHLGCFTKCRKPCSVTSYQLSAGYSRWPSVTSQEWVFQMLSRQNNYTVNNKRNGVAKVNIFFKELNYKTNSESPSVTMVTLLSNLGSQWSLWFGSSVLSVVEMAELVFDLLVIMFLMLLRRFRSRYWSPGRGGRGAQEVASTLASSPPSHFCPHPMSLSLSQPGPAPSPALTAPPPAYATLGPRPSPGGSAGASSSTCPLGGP
T1 sequence (P51168 1-640): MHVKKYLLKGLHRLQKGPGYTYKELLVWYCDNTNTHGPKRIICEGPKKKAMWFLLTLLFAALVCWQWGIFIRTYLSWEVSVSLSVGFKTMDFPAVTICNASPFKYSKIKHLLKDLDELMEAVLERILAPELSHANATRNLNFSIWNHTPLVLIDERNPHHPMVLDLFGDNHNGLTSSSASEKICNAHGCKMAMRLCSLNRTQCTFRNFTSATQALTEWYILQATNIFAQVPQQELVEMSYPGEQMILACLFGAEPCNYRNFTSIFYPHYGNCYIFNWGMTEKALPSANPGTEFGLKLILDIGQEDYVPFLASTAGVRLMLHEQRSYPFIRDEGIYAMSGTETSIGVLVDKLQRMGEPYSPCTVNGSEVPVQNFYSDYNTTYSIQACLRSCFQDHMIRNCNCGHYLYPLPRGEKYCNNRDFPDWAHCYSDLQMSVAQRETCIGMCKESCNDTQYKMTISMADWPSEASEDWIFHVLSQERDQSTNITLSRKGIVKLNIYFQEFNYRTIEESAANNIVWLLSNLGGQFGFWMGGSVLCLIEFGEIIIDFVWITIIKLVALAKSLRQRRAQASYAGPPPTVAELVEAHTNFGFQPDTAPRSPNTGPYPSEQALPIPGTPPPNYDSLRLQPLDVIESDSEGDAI
T1 sequence (P51170 1-649): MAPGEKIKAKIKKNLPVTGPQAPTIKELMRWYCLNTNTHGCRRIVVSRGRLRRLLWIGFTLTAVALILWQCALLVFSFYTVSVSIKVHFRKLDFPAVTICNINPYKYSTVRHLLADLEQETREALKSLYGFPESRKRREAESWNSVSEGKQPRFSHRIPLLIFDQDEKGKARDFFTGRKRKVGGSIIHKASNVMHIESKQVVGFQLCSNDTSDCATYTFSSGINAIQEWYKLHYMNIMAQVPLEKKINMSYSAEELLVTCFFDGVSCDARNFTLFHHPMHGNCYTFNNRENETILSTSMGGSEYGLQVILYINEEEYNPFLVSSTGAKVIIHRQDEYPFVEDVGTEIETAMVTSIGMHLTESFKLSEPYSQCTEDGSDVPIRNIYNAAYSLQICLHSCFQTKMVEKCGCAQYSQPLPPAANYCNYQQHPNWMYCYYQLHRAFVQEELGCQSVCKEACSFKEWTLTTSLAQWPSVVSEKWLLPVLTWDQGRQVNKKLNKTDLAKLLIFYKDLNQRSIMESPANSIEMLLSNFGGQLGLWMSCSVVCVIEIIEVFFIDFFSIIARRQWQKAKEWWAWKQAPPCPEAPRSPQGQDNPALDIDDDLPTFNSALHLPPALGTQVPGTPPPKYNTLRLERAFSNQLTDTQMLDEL
Description: Membrane potential assay (FMP dye) on αβγ hENaC-expressing cells. It is filed as cell-based. Particulars: 0.03-10 µM; read-out: EC50, depolarization of membrane potential in hENaC expressing cells. How it is done:
The α, β, and γ hENaC subunits were cloned from OriGene (Rockville, MD; GenBank accession number […] for SCNN1A, NM_000336 for SCNN1B and NM_001039 for SCNN1G). α, GFP-tagged β, and γ hENaC were cloned into a CMV promoter-based vector and expressed constitutively. The HEK293T cells were seeded onto a 35 mm dish and transfected with α, β, and γ hENaC expression plasmid using Lipofectamine 2000 (Invitrogen). Then, transfected cells were seeded onto 96-well black-wall plate for 18–26 h prior to their use in an experiment.
hENaC-expressing cells were characterized using FLIPER Membrane Potential (FMP) Assay Kit (Molecular Devices Corporation, Sunnyvale, CA, USA). In this assay, changes in the membrane potential were quantified via fluorescence change caused by FMP dye. The hENaC-expressing cells were washed with assay buffer (containing: 130 mM NaCl, 10 mM glucose, 5 mM KCl, 2 mM CaCl2, 1.2 mM MgCl2, and 10 mM HEPES, pH adjusted to 7.4 with NaOH) and subsequently, FMP blue-dye in assay buffer was loaded into the cells at room temperature for 30 min. After dye treatment, S3969 (0.03−10 µM), an ENaC agonist, S3969+Bz (ENaC antagonist, 0.01 µM), or NGCC (0.01−10 µM) was treated to hENaC-expressing cells. The plate was assayed in a FlexStation III plate reader (Molecular devices Corporation) by excitation at 530 nm and measuring the emission at 560 nm.

Test [2] addresses T1, αβγ hENaC. Also noted: method as in PMID 18326490. The conditions noted are these: read-out: EC50 of S3969 obtained by patch-clamp; cited from earlier work.
The next test concerns human δβγ ENaC. Also noted: method as in PMID 18326490. Particulars: cited from earlier work.
The test system of the next test is human αβγ ENaC. Set-up: method as in PMID 18326490. The conditions noted are these: cited from earlier work.
Test [3] deals with lingual surface potential to salt stimuli. Set-up: method as in PMID 12736236, PMID 16809639. Particulars: amiloride 100 µM, humans, gustometer; cited from earlier work.
Test [4] concerns chorda tympani (CT) taste nerve response to NaCl. Set-up: method as in PMID 12736236, PMID 16809639. The conditions noted are these: cited from earlier work.

Like-named read-outs stand apart in the source and are kept apart here.

For orientation: EC50 means the concentration at which the effect is half-maximal. On to `Cc1cccc2[nH]cc(SC(CC(C)C)C(=O)NCCO)c12` (stereo not drawn) [S3969], for which the 50% effective concentration (EC50) at αβγ hENaC [1] was 1260 ± 290 nM; on αβγ hENaC [2] it was 1200 ± 100 nM.

As usually defined, the IC50 is the concentration that inhibits the measured activity by half. With `N=C(N)NC(=O)c1nc(Cl)c(N)nc1N` [amiloride], the figures for the 50% inhibitory concentration (IC50) in the test on human δβγ ENaC and with human αβγ ENaC were approximately 2700 nM and approximately 110 nM, respectively. Further, in test [3], the “reduction of lingual surface potential to salt stimuli” value is listed as 5–40%. The “inhibition of chorda tympani (CT) taste nerve response to NaCl” value in test [4] was “about 70%”.

The record behind these values is publication PMC3930709, “Selective Activation of hTRPV1 by N-Geranyl Cyclopropylcarboxamide, an Amiloride-Insensitive Salt Taste Enhancer” (PLoS ONE, 2014).
